According to paper PMC7789354 (BMC Gastroenterology, 2021):

Tests used:
[1] = Bi-directional Caco-2 permeability (transport) assay; assay type: in vitro ADME, human
Description: (§1) Caco-2 cells (purchased from the Type Culture Collection of the Chinese Academy of Sciences, Shanghai, China) at passage 30 to 33 were used in this study. Cells were routinely cultured as previously described with minor modifications. Cells were seeded onto Transwell inserts in 12-well dishes at a density of 5 × 10^5 cells/well (#3401; 0.4 µm pore size, growth area of 1.13 cm^2, Corning, NY, USA), and the medium was replaced with D-Hanks solution every other day except for the treatment days.
Cell monolayer integrity was evaluated through the transepithelial electrical resistance (TEER) using a Millicell ERS resistance system (Millipore, Bedford, MA, USA) at 37 °C. Each TEER value was corrected for background resistance determined on an extracellular matrix-coated cell culture insert without cells.
Caco-2 transport study was performed as previously described. […] A to B assay was performed to determine the extent of OCT absorption, while B to A assay was performed to measure OCT secretion. As regard A to B assay, the apical (upper) chamber was filled with 1.6 mL test drug solution in HBSS, while the receiver basolateral (lower) compartment was filled with 0.6 mL HBSS alone. Conversely, in B to A assay the upper and lower chambers were filled with 0.6 mL HBSS and 1.6 mL test drug, respectively. […] The TEER value was determined at different incubation times to verify the integrity of the monolayer after buffer change. […] The permeability direction rate (PDR) was calculated by the ratio of Papp in the B to A direction versus that in the A to B direction, as follows: PDR=Papp(BtoA)/Papp(AtoB)
(§2) Frozen samples were thawed at room temperature prior to their preparation. A 200-µL aliquot of cell lysate containing 1 mL Tris, 99 mL D-Hank’s, and 200 µL methyl cyanide was mixed with the sample obtained from Caco-2 experiments. The mixture was then vortexed for 1 min and centrifuged at 12,000×g for 10 min. The supernatant was transferred to a clean glass tube and evaporated to dryness at 40 °C under nitrogen. A 10-μL aliquot was injected for LC − MS/MS analysis. A total of 200 μL methanol was added to a 50-μL sample of plasma, and the mixture was vortexed and centrifuged as described above to remove precipitated proteins. A total of 200 μL supernatant was transferred and evaporated as described for the Caco-2 samples. The residue was then diluted with 100 μL mobile phase and an aliquot of 10 μL was used for LC − MS/MS analysis.
(§3) Isocratic chromatographic separation was performed using a Hypersil BDS-C18 column (150 mm × 4.6 mm i.d., 5 µm; Dalian Elite Analytical Instruments Co. Ltd., China) maintained at room temperature. A mixture of 40% methanol-60% water with 0.1% formic acid (60:40, v/v) was used as the mobile phase at a flow rate of 0.5 mL/min. An API 3200 triple-quadrupole mass spectrometer (Applied Biosystems, Concord, Ontario, Canada) was operated with a Turbo Ionspray interface in positive ion mode. The ion spray voltage was set to + […], heater gas temperature to 500 °C, nebulizer gas (Gas 1) at 40 psi, heater gas (Gas 2) at 40 psi, curtain gas at 10 psi, and collision gas at 16 psi.

[2] = system: proximal jejunum; test: In situ jejunal perfusion, OCT absorption into portal vein blood; assay type: in vivo, rat; conditions: for AUC, % of the correspondent control group (Group A1): PH rats; for AUC, % of the correspondent control group (Group A1) / AUC, % of the correspondent control (Group A; OCT only): portal vein blood 5-60 min; for AUC, % of the correspondent control (Group A; OCT only): healthy rats
Description: The experimental procedure was performed as previously reported. Briefly, the mean length of the proximal jejunum (approximately 2 cm distal to the ligament of Treitz) was 10 ± 1 cm. An oxygenated Krebs–Ringer bicarbonate buffer (KRB) solution (pH 7.4) containing 0.5 mM MgCl2, 4.5 mM KCl, 120 mM NaCl, 0.7 mM Na2HPO4, 1.5 mM NaH2PO4, 1.2 mM CaCl2, 15 mM NaHCO3, and 10 mM glucose was perfused at a flow rate of 0.4 mL/min using a peristaltic pump through an inlet tube kept at 37 °C. […] The AUC was calculated using the integral method. These experiments were performed both in healthy and PH rats; the latter was called Group A1, B1, C1, and D1 (n = 4 per group).
as §2, §3

[3] = system: jejunum everted sac; test: In vitro everted intestinal sac preparation, OCT uptake; assay type: in vitro ADME, rat; conditions: for AUC, % of the correspondent control group (Group A1): PH rats; for AUC, % of the correspondent control group (Group A1) / AUC, % of the correspondent control group (Group A): sac lumen 10-120 min; for AUC, % of the correspondent control group (Group A): healthy rats
Description: Rat jejunum (10 ± 1 cm) was transected approximately 2 cm distal to the ligament of Treitz. […] The AUC was calculated using the trapezoid method. These experiments were performed in both control and PH rats; the latter was called Group A1, B1, C1, and D1 (n = 4 per group).
as §3

[4] = target: T1, recombinant human CYP3A4 (Homo sapiens, UniProt P08684); test: CYP3A4 activity with and without OCT incubation (fluorescent quantitative detection kit); assay type: biochemical; conditions: OCT 400 mM
T1 construct: purchased BD Gentest (Supersomes)
T1 sequence (P08684 whole entry): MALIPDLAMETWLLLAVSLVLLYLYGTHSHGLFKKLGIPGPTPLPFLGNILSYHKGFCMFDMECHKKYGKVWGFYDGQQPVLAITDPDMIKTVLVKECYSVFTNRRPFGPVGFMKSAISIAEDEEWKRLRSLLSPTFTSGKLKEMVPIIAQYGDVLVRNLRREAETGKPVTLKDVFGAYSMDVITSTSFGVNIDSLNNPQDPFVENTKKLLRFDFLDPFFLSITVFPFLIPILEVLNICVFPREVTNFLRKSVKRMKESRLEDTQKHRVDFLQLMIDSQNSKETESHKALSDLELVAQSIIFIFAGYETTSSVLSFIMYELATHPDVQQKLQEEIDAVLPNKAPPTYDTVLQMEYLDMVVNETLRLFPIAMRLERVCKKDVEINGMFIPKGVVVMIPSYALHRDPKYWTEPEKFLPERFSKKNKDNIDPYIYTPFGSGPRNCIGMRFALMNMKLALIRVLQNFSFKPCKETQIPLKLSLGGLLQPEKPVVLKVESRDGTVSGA
Description: All incubations were performed at 37 °C in a water bath. Recombinant human cDNA-expressing P450 isozyme 3A4 (BD Gentest Supersomes) was carefully thawed on ice prior to each experiment. […] After a 5-min pre-incubation at 37 °C, the reaction was started by the addition of NADPH and ended 30 min later by the addition of 500 µL methanol. Control samples without NADPH and samples without OCT were also included. […] Each sample was tested 4 times.

[5] = target: T1, recombinant human CYP3A4; test: OCT metabolism by recombinant human cytochrome P450 3A4; assay type: in vitro ADME; conditions: 10 min incubation, CYP3A4 2.5 mg/mL, NADPH; many different metabolites by LC–MS/MS
Description: All incubations were performed at 37 °C in a water bath. Recombinant human cDNA-expressing P450 isozyme 3A4 (BD Gentest Supersomes) was carefully thawed on ice prior to each experiment. […] […] Control samples without NADPH and samples without OCT were also included. […] Each sample was tested 4 times.
as §3

[6] = system: Caco-2 cells; assay type: cell-based, human; conditions: OCT concentrations of 1, 10, and 50 µM; data not shown
Description: as §1

[7] = system: CYP3A; test: OCT metabolism by CYP3A in rat intestinal microsomes; assay type: in vitro ADME
Description: Microsomes from the small intestine of healthy rats and PH rats were obtained as previously described, and their protein concentration (0.53 ± 0.05 mg/mL and 0.52 ± 0.06 mg/mL total protein, respectively) was measured using the BCA method (Beijing Solarbio Science & Technology Co., Ltd). […] CYP3A activity was measured using a fluorescent quantitative detection kit (Genmed Scientifics Inc., U.S.A.) with the NADPH regenerating system after pre-incubation at 37 °C for 0, 2, 10, 20 or 30 min. […] The organic phase was evaporated to dryness and the OCT content in the residue was measured by LC–MS/MS.
Each sample was tested 3 times.
as §3

[8] = Caco-2, OCT 1 μM, Control (no inhibitor)
[9] = Caco-2, OCT 1 μM, MRP2 and P-gp inhibition
[10] = Caco-2, OCT 1 μM, MRP2 inhibition (probenecid 1 mM)
[11] = Caco-2, OCT 1 μM, P-gp inhibition (rhodamine 123 1 mM)
[12] = Caco-2, OCT 10 μM, Control (no inhibitor)
[13] = Caco-2, OCT 10 μM, MRP2 and P-gp inhibition
[14] = Caco-2, OCT 10 μM, MRP2 inhibition (probenecid 1 mM)
[15] = Caco-2, OCT 10 μM, P-gp inhibition (rhodamine 123 1 mM)
[16] = Caco-2, OCT 50 μM, Control (no inhibitor)
[17] = Caco-2, OCT 50 μM, MRP2 and P-gp inhibition
[18] = Caco-2, OCT 50 μM, MRP2 inhibition (probenecid 1 mM)
[19] = Caco-2, OCT 50 μM, P-gp inhibition (rhodamine 123 1 mM)
[20] = 10 µM OCT alone, PH rats versus healthy rats
[21] = 10 µM OCT plus 1 mM probenecid (Group C1)
[22] = 10 µM OCT plus 1 mM verapamil hydrochloride (Group B1)
[23] = 10 µM OCT plus 1 mM verapamil hydrochloride plus 1 mM probenecid (Group D1)
[24] = 10 µM OCT plus 1 mM probenecid (Group C)
[25] = 10 µM OCT plus 1 mM verapamil hydrochloride (Group B)
[26] = 10 µM OCT plus 1 mM verapamil hydrochloride plus 1 mM probenecid (Group D)

Compound C[C@@H](O)[C@@H]1NC(=O)[C@H](CCCCN)NC(=O)[C@@H](Cc2c[nH]c3ccccc23)NC(=O)[C@H](Cc2ccccc2)NC(=O)[C@@H](NC(=O)[C@H](N)Cc2ccccc2)CSSC[C@@H](C(=O)N[C@H](CO)[C@@H](C)O)NC1=O [OCT, octreotide] has a Papp A→B [1, 8] of 0.005 ± 0.001 ×10⁻⁶ cm/s, a Papp B→A [1, 8] of 0.021 ± 0.003 ×10⁻⁶ cm/s and a Papp A→B [1, 9] of 0.022 ± 0.002 ×10⁻⁶ cm/s. The Papp B→A [1, 9] was 0.006 ± 0.001 ×10⁻⁶ cm/s, the Papp A→B [1, 10] was 0.007 ± 0.001 ×10⁻⁶ cm/s and the Papp B→A [1, 10] was 0.006 ± 0.001 ×10⁻⁶ cm/s. The Papp A→B [1, 11] was 0.01 ± 0.001 ×10⁻⁶ cm/s, the Papp B→A [1, 11] was 0.012 ± 0.002 ×10⁻⁶ cm/s and the Papp A→B [1, 12] was 0.127 ± 0.015 ×10⁻⁶ cm/s. It also gave a Papp B→A [1, 12] of 0.565 ± 0.073 ×10⁻⁶ cm/s, a Papp A→B [1, 13] of 0.368 ± 0.055 ×10⁻⁶ cm/s and a Papp B→A [1, 13] of 0.193 ± 0.021 ×10⁻⁶ cm/s. For the same compound, the Papp A→B [1, 14] was 0.149 ± 0.016 ×10⁻⁶ cm/s, the Papp B→A [1, 14] was 0.31 ± 0.025 ×10⁻⁶ cm/s and the Papp A→B [1, 15] was 0.168 ± 0.018 ×10⁻⁶ cm/s. It also gave a Papp B→A [1, 15] of 0.297 ± 0.024 ×10⁻⁶ cm/s, a Papp A→B [1, 16] of 0.23 ± 0.021 ×10⁻⁶ cm/s and a Papp B→A [1, 16] of 1.33 ± 0.16 ×10⁻⁶ cm/s. It also gave a Papp A→B [1, 17] of 1.73 ± 0.138 ×10⁻⁶ cm/s, a Papp B→A [1, 17] of 0.981 ± 0.082 ×10⁻⁶ cm/s and a Papp A→B [1, 18] of 0.353 ± 0.032 ×10⁻⁶ cm/s. The Papp B→A [1, 18] was 1.13 ± 0.097 ×10⁻⁶ cm/s, the Papp A→B [1, 19] was 1.19 ± 0.072 ×10⁻⁶ cm/s and the Papp B→A [1, 19] was 1.04 ± 0.084 ×10⁻⁶ cm/s. The “AUC of group A1 as % of group A” value [2, 20] was 96%, the “AUC, % of the correspondent control group (Group A1)” value (“AUC, % … (Group A1)” below) [2, 21] was 236.28% and the “AUC, % … (Group A1)” value [2, 22] was 384.61%. For the same compound, the “AUC, % … (Group A1)” value [2, 23] was 461.78%, the “AUC, % of the correspondent control (Group A; OCT only)” value (shortened to “AUC, % … (Group A; OCT only)”) [2, 24] was 418.95% and the “AUC, % … (Group A; OCT only)” value [2, 25] was 521.08%. The “AUC, % … (Group A; OCT only)” value [2, 26] was 618.40%, the “AUC of group A1 as % of group A” value [3, 20] was 21.54% and the “AUC, % … (Group A1)” value [3, 21] was 128.23%. The “AUC, % … (Group A1)” value [3, 22] was 151.82%, the “AUC, % … (Group A1)” value [3, 23] was 165.33% and the “AUC, % of the correspondent control group (Group A)” value (“AUC, % … (Group A)” below) [3, 24] was 151.39%. The “AUC, % … (Group A)” value [3, 25] was 176.22%, the “AUC, % … (Group A)” value [3, 26] was 220.63% and the “Change in activity of recombinant human CYP3A4 after pre-incubation with OCT” value [4] was “No changes”. For the same compound, the “Metabolism of OCT by recombinant human CYP3A4” value [5] was “CYP3A4 metabolized OCT”, the “Caco-2 cell death (LDH-cytotoxicity assay)” value [6] was “No sign of Caco-2 cell death” and the “OCT level, PH + OCT group versus N + OCT group” value ([7]; intestinal microsomes of PH versus healthy rats, OCT 1000 ng/mL, 37 °C, p < 0.05) was “significantly lower”. The “OCT level in the presence of the CYP3A inhibitor ketoconazole” value ([7]; intestinal microsomes of healthy and PH rats, OCT 1000 ng/mL, ketoconazole 10 µM, p < 0.01) was “significantly and equally increased” and the “Metabolism of OCT by CYP3A” value ([7]; rat intestinal microsomes, NADPH-generating system) was “metabolized by CYP3A”.
